Like-named read-outs stand apart in the source and are kept apart here.
Tests used:
HT29 cells = assay: Inhibitory effect of compounds on HT29 cell proliferation; format: cell-based, Human; conditions: read-out: IC50, inhibitory activity on HT29 cell proliferation
Protocol: (1) Cell plating: First, tumor cells HT29 were cultured in corresponding medium, then digested with trypsin, centrifuged, resuspended, and counted, and the cells were adjusted to an appropriate concentration for plating.
(§1) Co-incubation of the compound of the present disclosure and tumor cells: after the cells adhered to the wall, the medium was removed, and the diluted bioactive molecule (the compound of the present disclosure) was added to the wells of the above plate, and incubated for 72 h.
(§2) In vitro cell viability detection: After the incubation, 50 μL of Cell Counting-Lite™ 2.0 reagent (Vazyme/Novazyme) was added to each well, shaken and mixed well in the dark, reacted for 10 minutes, and then the detection was carried out with a microplate reader (manufacturer: BMG, Model: PHERAStar-FS) for reading. The background RLU was obtained by using cell-free medium (with Cell Counting-Lite™), and the vehicle RLU was obtained by using cell-containing medium (with Cell Counting-Lite™). Cell inhibition rate=1−(sample RLU−background RLU)/(solvent RLU−background RLU)×100%. According to the four-parameter model fitting curve, the half maximal inhibitory concentration (IC50) of the compound was calculated, and the detection results were shown in Table 2.

NCI-H358 cells = assay: Inhibitory effect of compounds on NCI-H358 cell proliferation; format: cell-based, Human
Protocol: (1) Cell plating: First, tumor cells NCI-H358 were cultured in corresponding medium, then digested with trypsin, centrifuged, resuspended, and counted, and the cells were adjusted to an appropriate concentration for plating.
as §1
as §2, with “Table 10.” for “Table 2.”

MDA-MB-453 cells = assay: Inhibitory effect of compounds on MDA-MB-453 cell proliferation; format: cell-based; conditions: MDA-MB-453 human breast cancer cells, 72 h incubation, Cell Counting-Lite 2.0
Protocol: (1) Cell plating: First, tumor cells MDA-MB-453 were cultured in corresponding medium, then digested with trypsin, centrifuged, resuspended, and counted, and the cells were adjusted to an appropriate concentration for plating.
as §1
as §2, with “Table 22.” for “Table 2.”

NCI-N87 cells = assay: Inhibitory effect of compounds on NCI-N87 cell proliferation; format: cell-based, Human
Protocol: (1) Cell plating: First, tumor cells NCI-N87 were cultured in corresponding medium, then digested with trypsin, centrifuged, resuspended, and counted, and the cells were adjusted to an appropriate concentration for plating.
as §1
as §2, with “Table 12.” for “Table 2.”

HCC1806 cells = assay: Inhibitory effect of compounds on HCC1806 cell proliferation; format: cell-based, Human
Protocol: (1) Cell plating: First, tumor cells HCC1806 were cultured in corresponding medium, then digested with trypsin, centrifuged, resuspended, and counted, and the cells were adjusted to an appropriate concentration for plating.
as §1
as §2, with “Table 6.” for “Table 2.”

[1] = Homo sapiens, NCI-N87, 72 h, read-out: IC50, inhibitory activity on NCI-N87 cell proliferation, NCI-N87 human gastric cancer cells, 72 h incubation, Cell Counting-Lite 2.0
[2] = read-out: IC50, inhibitory activity on NCI-H358 cell proliferation, NCI-H358 human non-small cell lung cancer cells, 72 h incubation, Cell Counting-Lite 2.0
[3] = read-out: IC50, inhibitory activity on HCC1806 cell proliferation, HCC1806 human breast squamous carcinoma cells, 72 h incubation, Cell Counting-Lite 2.0
[4] = read-out: IC50, inhibitory activity on NCI-N87 cell proliferation, NCI-N87 human gastric cancer cells, 72 h incubation, Cell Counting-Lite 2.0
[5] = NCI-H358 human non-small cell lung cancer cells, 72 h incubation, Cell Counting-Lite 2.0, read-out: IC50, inhibitory activity on NCI-H358 cell proliferation
[6] = HCC1806 human breast squamous carcinoma cells, 72 h incubation, Cell Counting-Lite 2.0, read-out: IC50, inhibitory activity on HCC1806 cell proliferation
[7] = NCI-N87 human gastric cancer cells, 72 h incubation, Cell Counting-Lite 2.0, read-out: IC50, inhibitory activity on NCI-N87 cell proliferation

CC[C@@]1(O)C(=O)OCc2c1cc1n(c2=O)Cc2c-1nc1cc(F)c(C)cc1c2CCN(C(=O)CO)C(C)C [Example 10 (4-12), (S)—N-(2-(4-ethyl-8-fluoro-4-hydroxy-9-methyl-3,14-dioxo-3,4,12,14-tetrahydro-1H-pyrano[3′,4′:6,7]indolizino[1,2-b]quinolin-11-yl)ethyl)-2-hydroxy-N-isopropylacetamide]
IC50 (HT29 cells; HT-29, HT29 human colon cancer cells, 72 h incubation, Cell Counting-Lite 2.0): 4.79 nM

CC[C@@]1(O)C(=O)OCc2c1cc1n(c2=O)Cc2c-1nc1cc(F)c(Cl)c3c1c2[C@@H](NC[C@H](C)O)CC3 (single isomer, unassigned) [Example 17 (3-7-A)]
IC50 (NCI-H358 cells; Homo sapiens, NCI-H358, 72 h, read-out: IC50, inhibitory activity on NCI-H358 cell proliferation, NCI-H358 human non-small cell lung cancer cells, 72 h incubation, Cell Counting-Lite 2.0): 49.4 nM | IC50 (MDA-MB-453 cells; Homo sapiens, MDA-MB-453, 72 h): 6.23 nM | IC50 (NCI-N87 cells; [1]): 5.32 nM

CC[C@@]1(O)C(=O)OCc2c1cc1n(c2=O)Cc2c-1nc1cc(F)c(Cl)c3c1c2C(NC(=O)C(O)C1CC1)CC3 (single isomer, unassigned) [Example 16 (3-12-B)]
IC50 (NCI-H358 cells; [2]): 19.8 nM | IC50 (MDA-MB-453 cells): 4.32 nM | IC50 (HCC1806 cells; [3]): 1.76 nM | IC50 (NCI-N87 cells; [4]): 3.45 nM

CC[C@@]1(O)C(=O)OCc2c1cc1n(c2=O)Cc2c-1nc1cc(Cl)c(C)c3c1c2[C@H](NC(=O)CO)CC3 [Example 3 (2-2-B), N-((1R,9S)-5-chloro-9-ethyl-9-hydroxy-4-methyl-10,13-dioxo-2,3,9,10,13,15-hexahydro-1H,12H-benzo[de]pyrano[3′,4′:6,7]indolizino[1,2-b]quinolin-1-yl)-2-hydroxyacetamide]
IC50 (HT29 cells; Homo sapiens, HT-29, 72 h): 7.52 nM

CC[C@@]1(O)C(=O)OCc2c1cc1n(c2=O)Cc2c-1nc1cc(F)c(Cl)c3c1c2[C@@H](N)CC3 (single isomer, unassigned) [Example 8 (3-1-A)]
IC50 (NCI-N87 cells; [1]): 0.37 nM | IC50 (HT29 cells; Homo sapiens, HT-29, 72 h): 0.16 nM

CC[C@@]1(O)C(=O)OCc2c1cc1n(c2=O)Cc2c-1nc1cc(Cl)c(C)c3c1c2[C@@H](NC[C@@H](C)O)CC3 [Example 24 (2-27-A), (2R)—N-((1S,9S)-5-Chloro-9-ethyl-9-hydroxy-4-methyl-10,13-dioxo-2,3,9,10,13,15-hexahydro-1H,12H-benzo[de]pyrano[3′,4:6,7]indolizino[1,2-b]quinolin-1-yl)-2-hydroxypropylamine]
IC50 (NCI-H358 cells; [5]): 56.5 nM | IC50 (MDA-MB-453 cells): 11.8 nM | IC50 (HCC1806 cells; [6]): 4.55 nM | IC50 (NCI-N87 cells; [7]): 8.32 nM

CC[C@@]1(O)C(=O)OCc2c1cc1n(c2=O)Cc2c-1nc1cc(F)c(Cl)c3c1c2[C@H](N)CC3 (single isomer, unassigned) [Example 8 (3-1-B)]
IC50 (NCI-N87 cells; [1]): 1.34 nM | IC50 (HT29 cells; Homo sapiens, HT-29, 72 h): 0.71 nM

CC[C@@]1(O)C(=O)OCc2c1cc1n(c2=O)Cc2c-1nc1cc(F)c(Cl)c3c1c2[C@H](NC(=O)C1(O)CC1)CC3 [Example 18 (3-17-B)]
IC50 (NCI-H358 cells; [5]): 37.3 nM | IC50 (MDA-MB-453 cells): 6.16 nM | IC50 (HCC1806 cells; [6]): 2.26 nM | IC50 (NCI-N87 cells; [7]): 4.19 nM

CC[C@@]1(O)C(=O)OCc2c1cc1n(c2=O)Cc2c-1nc1cc(F)c(C)c3c1c2[C@@](C)(NC(=O)C1(O)CC1)CC3 (single isomer, unassigned) [Example 14 (5-16-A)]
IC50 (HT29 cells; Homo sapiens, HT-29, 72 h): 3.87 nM

CC[C@@]1(O)C(=O)OCc2c1cc1n(c2=O)Cc2c-1nc1cc(Cl)c(C)c3c1c2[C@H](NC[C@@H](C)O)CC3 [Example 24 (2-27-B), (2R)—N-((1R,9S)-5-chloro-9-ethyl-9-hydroxy-4-methyl-10,13-dioxo-2,3,9,10,13,15-hexahydro-1H,12H-benzo[de]pyrano[3′,4:6,7]indolizino[1,2-b]quinolin-1-yl)-2-hydroxypropylamine]
IC50 (NCI-H358 cells; [5]): 69.1 nM | IC50 (HCC1806 cells; [6]): 3.93 nM | IC50 (NCI-N87 cells; [7]): 14.7 nM

CC[C@@]1(O)C(=O)OCc2c1cc1n(c2=O)Cc2c-1nc1cc(Cl)c(C)c3c1c2[C@H](NC(=O)[C@H](O)C1CC1)CC3 [Example 5 (2-12-D), (2R)—N-((1R,9S)-5-chloro-9-ethyl-9-hydroxy-4-methyl-10,13-dioxo-2,3,9,10,13,15-hexahydro-1H,12H-benzo[de]pyrano[3′,4′:6,7]indolizino[1,2-b]quinolin-1-yl)-2-cyclopropyl-2-hydroxyacetamide]
IC50 (HT29 cells; Homo sapiens, HT-29, 72 h): 3.29 nM

CC[C@@]1(O)C(=O)OCc2c1cc1n(c2=O)Cc2c-1nc1cc(F)c(Cl)c3c1c2[C@@H](NC(=O)C1(O)CC1)CC3 [Example 18 (3-17-A)]
IC50 (NCI-H358 cells; [5]): 13.3 nM | IC50 (MDA-MB-453 cells): 3.32 nM | IC50 (HCC1806 cells; [6]): 1.7 nM | IC50 (NCI-N87 cells; [7]): 3.01 nM

CC[C@@]1(O)C(=O)OCc2c1cc1n(c2=O)Cc2c-1nc1cc(F)c(Cl)c3c1c2C(NC(=O)C(O)C1CC1)CC3 (single isomer, unassigned) [Example 16 (3-12-C)]
IC50 (NCI-H358 cells; [2]): 28.3 nM | IC50 (MDA-MB-453 cells): 5.52 nM | IC50 (HCC1806 cells; [3]): 1.91 nM | IC50 (NCI-N87 cells; [4]): 3.99 nM

CC[C@@]1(O)C(=O)OCc2c1cc1n(c2=O)Cc2c-1nc1cc(Cl)c(C)c3c1c2[C@H](NCC(C)(C)O)CC3 [Example 6 (2-17-B), N-((1R,9S)-5-chloro-9-ethyl-9-hydroxy-4-methyl-10,13-dioxo-2,3,9,10,13,15-hexahydro-1H, 12H-benzo[de]pyrano[3′,4′:6,7]indolizino[1,2-b]quinolin-1-yl)-2-hydroxy-2-methylpropylamine]
IC50 (HT29 cells; Homo sapiens, HT-29, 72 h): 1.59 nM

CC[C@@]1(O)C(=O)OCc2c1cc1n(c2=O)Cc2c-1nc1cc(Cl)c(C)c3c1c2[C@@H](NCC(C)(C)O)CC3 [Example 6 (2-17-A), N-((1S,9S)-5-chloro-9-ethyl-9-hydroxy-4-methyl-10,13-dioxo-2,3,9,10,13,15-hexahydro-1H,12H-benzo[de]pyrano[3′,4′:6,7]indolizino[1,2-b]quinolin-1-yl)-2-hydroxy-2-methylpropylamine]
IC50 (HT29 cells; Homo sapiens, HT-29, 72 h): 1.24 nM

CC[C@@]1(O)C(=O)OCc2c1cc1n(c2=O)Cc2c-1nc1cc(F)c(Cl)c3c1c2[C@H](NC[C@@H](C)O)CC3 (single isomer, unassigned) [Example 25 (3-26-B)]
IC50 (HCC1806 cells; Homo sapiens, HCC1806, 72 h, read-out: IC50, inhibitory activity on HCC1806 cell proliferation, HCC1806 human breast squamous carcinoma cells, 72 h incubation, Cell Counting-Lite 2.0): 4.93 nM | IC50 (NCI-N87 cells; [1]): 25.3 nM
